# In patent US7943628B2, “Pyrimidine derivatives” (Pfizer Limited, priority 2005, dated 2011):
# Target: T1, histamine H4 receptor (Homo sapiens, UniProt Q9H3N8)
# T1 construct: expressed in transfected cells; host or cells: CHO cells
# Assay: H4 binding, method 1 ([3H]-histamine filtration binding on CHO cell membranes)
# Conditions: H4 binding, method 1; Ki calculated from IC50 (Cheng-Prussoff)
# Description: Cell pellets from CHO cells expressing the histamine H4 receptor were homogenised in ice-cold 50 mM Tris-HCl/0.5 mM CaCl2 buffer containing a protease inhibitor cocktail (Roche®, United Kingdom) using a ground glass homogeniser. Homogenates were centrifuged at 48000 g for 30 min at 4° C. The membrane pellet was resuspended in fresh buffer and the centrifugation step was repeated as described above. The membrane pellet was resuspended in 50 mM Tris-HCl in the same volume as the original cell pellet. Aliquots of membrane preparations were stored at −80° C. and were used for [^3H]-Histamine binding experiments.
# Cell membranes (20-35 μg/well) were incubated for 90 minutes shaking at room temperature with 3 nM [2,5-^3H]Histamine dihydrochloride (30-60 Ci/mmol) in 50 mM Tris-HCl (pH 7.4), with or without competing H4 ligands. The reaction was terminated by rapid filtration through 0.5% polyethylenimine-soaked Unifilter GF/B plates (Packard) followed by three washes with 1 ml ice-cold 50 mM Tris-HCl. Filters were dried for 45 min at 45° C. and bound radiolabel was determined using scintillation counting techniques. Non-specific binding was defined with 10 μM JNJ7777120.
row,Ki,Structure (SMILES)
1,32.4 nM,"CN(C)CCNc1cc(NCC2CC2)ncn1 [Example 194, N-(Cyclopropylmethyl)-N′-[2-(dimethylamino)ethyl]pyrimidine4,6-diamine]"
2,32.6 nM,"CCC(C)CNc1cc(N2CC[C@@H](N)C2)nc(N)n1 (stereo partly drawn) [Example 195, 6-[(3R)-3-Aminopyrrolidin-1-yl]-N^4-(2-methylbutyl)pyrimidine-2,4-diamine]"
3,33.1 nM,"CNC1(C)CN(c2cc(NCC3CC3)nc(N)n2)C1 [Example 196, N^4-(Cyclopropylmethyl)-6-[3-methyl-3-(methylamino)azetidin-1-yl]pyrimidine-2,4-diamine]"
4,33.2 nM,"CCNc1cc(N2CC(N3CCCC3)C2)nc(N)n1 [Example 197, N^4-Ethyl-6-(3-pyrrolidin-1-ylazetidin-1-yl)pyrimidine-2,4-diamine]"
5,33.6 nM,"CC(C)Nc1cc(N2CCCN(C)CC2)nc(N)n1 [Example 198, N^4-isoPropyl-6-(4-methyl-1,4-diazepan-1-yl)pyrimidine-2,4-diamine]"
6,33.9 nM,"CN[C@@H]1CCN(c2cc(NC3CCC3)nc(N)n2)C1 [Example 199, N^4-Cyclobutyl-6-[(3R)-3-(methylamino)pyrrolidin-1-yl]pyrimidine-2,4-diamine]"
7,35 nM,"CC(C)(C)CNc1cc(N2CCC(N)CC2)nc(N)n1 [Example 201, 6-(4-Aminopiperidin-1-yl)-N^4-(2,2-dimethylpropyl)pyrimidine-2,4-diamine]"
8,36.5 nM,"CN[C@@H]1CCN(c2cc(NC(C)C)ncn2)C1 [Example 202, N-Isopropyl-6-[(3R)-3-(methylamino)pyrrolidin-1-yl]pyrimidin-4-amine]"
9,37.9 nM,"CN[C@@H]1CCN(c2cc(NC3CC3)ncn2)C1 [Example 203, N-Cyclopropyl-6-[(3R)-3-(methylamino)pyrrolidin-1-yl]pyrimidin-4-amine]"
10,39 nM,"CN[C@H]1CCN(c2cc(NCC3CC3)nc(N)n2)C1 [Example 204, N^4-(Cyclopropylmethyl)-6-[(3S)-3-(methylamino)pyrrolidin-1-yl]pyrimidine-2,4-diamine]"
11,39.3 nM,"CCNc1cc(N2CC[C@H](NC)C2)nc(N)n1 [Example 205, N^4-Ethyl-6-[(3S)-3-(methylamino)pyrrolidin-1-yl]pyrimidine-2,4-diamine]"
12,39.9 nM,"CCCNc1cc(N2CC(NC)C2)ncn1 [Example 206, 6-[3-(Methylamino)azetidin-1-yl]-N-propylpyrimidin-4-amine]"
13,43.3 nM,"CN[C@H]1CCN(c2cc(NC(C)(C)C)nc(N)n2)C1 [Example 207, N^4-(tert-Butyl)-6-[(3S)-3-(methylamino)pyrrolidin-1-yl]pyrimidine-2,4-diamine]"
14,46.4 nM,"CNCC1CN(c2cc(NCC(C)(C)C)nc(N)n2)C1 [Example 209, N^4-(2,2-Dimethylpropyl)-6-{3-[(methylamino)methyl]azetidin-1-yl}pyrimidine-2,4-diamine]"
15,49.3 nM,"CN[C@H]1CCN(c2cc(NCCC(C)(C)C)nc(N)n2)C1 [Example 211, N^4-(3,3-Dimethylbutyl)-6-[(3S)-3-(methylamino)pyrrolidin-1-yl]pyrimidine-2,4-diamine]"
16,50 nM,"NCCNc1cc(NCC2CC2)nc(N)n1 [Example 212, N^4-(2-Aminoethyl)-N^6-(cyclopropylmethyl)pyrimidine-2,4,6-triamine]"
17,52.9 nM,"C[C@H]1CN(c2cc(NCc3ccccc3F)nc(N)n2)CCN1 [Example 213, N^4-(2-Fluorobenzyl)-6-[(3S)-3-methylpiperazin-1-yl]pyrimidine-2,4-diamine]"
18,57.3 nM,"Nc1nc(NCC2CC2)cc(N2CC[C@@H](N)C2)n1 [Example 215, 6-[(3R)-3-Aminopyrrolidin-1-yl]-N^4-(cyclopropylmethyl)pyrimidine-2,4-diamine]"
19,70.6 nM,"CC(C)CNc1cc(N2CC[C@@H](N)C2)nc(N)n1 [Example 216, 6-[(3R)-3-Aminopyrrolidin-1-yl]-N^4-isobutylpyrimidine-2,4-diamine]"

# Continued, compound first:
row,Structure (SMILES),Ki
1,"CC(C)Nc1cc(N2C[C@@H]3CCCN[C@@H]3C2)nc(N)n1 [Example 169, N^4-Isopropyl-6-[(4aS,7aS)-octahydro-6H-pyrrolo[3,4-b]pyridin-6-yl]pyrimidine-2,4-diamine]",6.77 nM
2,"CCNc1cc(N2CC(N)C2)nc(N)n1 [Example 170, 6-(3-Aminoazetidin-1-yl)-N^4-ethylpyrimidine-2,4-diamine]",8.55 nM
3,"Nc1nc(NCC2CC2)cc(N2CC(N)C2)n1 [Example 171, 6-(3-Aminoazetidin-1-yl)-N^4-(cyclopropylmethyl)pyrimidine-2,4-diamine]",9.21 nM
4,"Nc1nc(NC2CC2)cc(N2CCC3NCCC3C2)n1 (stereo not drawn) [Example 172, N^4-Cycopropyl-6-[(3aR*,7aS*)-octahydro-5H-pyrrolo[3,2-c]pyridin-5-yl]pyrimidine-2,4-diamine]",9.3 nM
5,"CNC1CN(c2cc(N3CCC(C)CC3)nc(N)n2)C1 [Example 173, 4-[3-(Methylamino)azetidin-1-yl]-6-(4-methylpiperidin-1-yl)pyrimidin-2-amine]",10.1 nM
6,"CN[C@@H]1CCN(c2cc(NCC3CCCC3)nc(N)n2)C1 [Example 174, N^4-(Cyclopentylmethyl)-6-[(3R)-3-(methylamino)pyrrolidin-1-yl]pyrimidine-2,4-diamine]",10.6 nM
7,"CCNc1cc(N2CCCNCC2)nc(N)n1 [Example 175, 6-(1,4-Diazepan-1-yl)-N^4-ethylpyrimidine-2,4-diamine]",12.3 nM
8,"CN(C)CCNc1cc(NCC2CC2)nc(N)n1 [Example 176, N^4-(Cyclopropylmethyl)-N6-[2-(dimethylamino)ethyl]pyrimidine-2,4,6-triamine]",15.1 nM
9,"CN[C@H]1CCN(c2cc(NCC(C)(C)C)nc(N)n2)C1 [Example 177, N^4-(2,2-Dimethylpropyl)-6-[(3S)-3-(methylamino)pyrrolidin-1-yl]pyrimidine-2,4-diamine]",16 nM
10,"Nc1nc(NC2CCC2)cc(N2C[C@@H]3CCCN[C@@H]3C2)n1 [Example 178, N^4-Cyclobutyl-6-[(4aS,7aS)-octahydro-6H-pyrrolo[3,4-b]pyridin-6-yl]pyrimidine-2,4-diamine]",16.1 nM
11,"CNC1CN(c2cc(NC3CCC3)ncn2)C1 [Example 179, N-Cyclobutyl-6-[3-(methylamino)azetidin-1-yl]pyrimidin-4-amine]",16.5 nM
12,"CCCNc1cc(N2CC[C@@H](NC)C2)nc(N)n1 [Example 180, 6-[(3R)-3-(Methylamino)pyrrolidin-1-yl]-N^4-propylpyrimidine-2,4-diamine]",17.4 nM
13,"CN[C@@H]1CCN(c2cc(NC3CCC3)ncn2)C1 [Example 181, N-Cyclobutyl-6-[(3R)-3-(methylamino)pyrrolidin-1-yl]pyrimidin-4-amine]",17.6 nM
14,"CNC1CN(c2cc(NCCOC)nc(N)n2)C1 [Example 182, N^4-(2-Methoxyethyl)-6-[3-(methylamino)azetidin-1-yl]pyrimidine-2,4-diamine]",19.8 nM
15,"CN[C@@H]1CCN(c2cc(NCC(C)(C)C)ncn2)C1 [Example 183, N-(2,2-Dimethylpropyl)-6-[(3R)-3-(methylamino)pyrrolidin-1-yl]pyrimidin-4-amine]",20 nM
16,"C[C@H]1CN(c2cc(NCC3CC3)nc(N)n2)CCN1 [Example 184, N^4-(Cyclopropylmethyl)-6-[(3S)-3-methylpiperazin-1-yl]pyrimidine-2,4-diamine]",20.4 nM
17,"CCNc1cc(N2CCCN(C)CC2)nc(N)n1 [Example 185, N^4-Ethyl-6-(4-methyl-1,4-diazepan-1-yl)pyrimidine-2,4-diamine]",20.5 nM
18,"CNC1(C)CN(c2cc(NCC(C)(C)C)nc(N)n2)C1 [Example 186, N^4-(2,2-Dimethylpropyl)-6-[3-methyl-3-(methylamino)azetidin-1-yl]pyrimidine-2,4-diamine]",22.2 nM
19,"CC(C)Nc1cc(N2CCNCC2)nc(N)n1 [Example 187, N^4-Isopropyl-6-piperazin-1-ylpyrimidine-2,4-diamine]",22.4 nM
20,"CNC1CN(c2cc(NC3CC3)ncn2)C1 [Example 189, N-Cyclopropyl-6-[3-(methylamino)azetidin-1-yl]pyrimidin-4-amine]",25.8 nM
21,"CC(C)(C)CNc1cc(N2CC(N)C2)nc(N)n1 [Example 190, 6-(3-Aminoazetidin-1-yl)-N^4-(2,2-dimethylpropyl)pyrimidine-2,4-diamine]",27.7 nM
22,"CN1C[C@@H]2C[C@H]1CN2c1cc(NCC(C)(C)C)nc(N)n1 [Example 191, N^4-(2,2-Dimethylpropyl)-6-[(1S,4S)-5-methyl-2,5-diazabicyclo[2.2.1]hept-2-yl]pyrimidine-2,4-diamine]",28.2 nM
23,"CC(C)(C)CNc1cc(N2CC(N3CCCC3)C2)ncn1 [Example 192, N-(2,2-Dimethylpropyl)-6-(3-pyrrolidin-1-ylazetidin-1-yl)pyrimidin-4-amine]",28.7 nM
24,"CNc1cc(N2CCNCC2)nc(N)n1 [Example 208, N^4-Methyl-6-piperazin-1-ylpyrimidine-2,4-diamine]",45.1 nM
25,"Nc1nc(NCC2CC2)cc(N2C[C@@H]3CCCN[C@@H]3C2)n1 [Example 210, N^4-(Cyclopropylmethyl)-6-[(4aS,7aS)-octahydro-6H-pyrrolo[3,4-b]pyridin-6-yl]pyrimidine-2,4-diamine]",48.9 nM
26,"CCNc1cc(N2CCNCC2)nc(N)n1 [Example 214, N^4-Ethyl-6-piperazin-1-ylpyrimidine-2,4-diamine]",54.4 nM
